Consider two compounds from patent EP1510220B1 (priority 1993, dated 1994).

The subject of series [1] is Balloon traumatized pig arteries. To be noted: in vivo.
The subject of series [2] is Vascular smooth muscle cells (BO54). Description: Scratch-migration assay with morphological toxicity grading. It is filed as cell-based, baboon. More on the design: key: - = no migration; +1 = minimal; +2 = mild; +3 = moderate; +4 = marked (maximum density; limit of cell contact inhibition) migration. As to the method:
Scratch assays to determine the extent of smooth muscle cell migration inhibition by cytochalasin B were performed in accordance with the following protocol:
Vascular smooth muscle cells (BO54) were derived from explants of baboon aortic smooth muscle, as described in Example 1. The cells were grown in flat bottom, six well tissue culture plates, which hold about 5 ml of medium. The vascular smooth muscle cells were plated at 200,000 cells/well and placed at 37°C in a humidified 5% CO2 incubator for 18 hours. The wells were then scratched with a sterile portion of a single edge razor blade that was held by clamp or pliers and was brought aseptically into contact with the bottom of the well at a 90° angle. The cells from a small area along the scratch were removed by a sterile cotton tipped applicator while the blade was in contact with the bottom of the well. After incubation, the presence of cells in the "scratched" area is indicative of cell migration across the scratch line.
Briefly, a stock solution of cytochalasin B (Sigma Chemical Co.) in dimethyl sulfoxide (DMSO) at 1 mg/ml was prepared. Test dilutions of cytochalasin B or control medium were added. Each experiment included two sets of plates: • A set: Test agent exposure for 1, 3, 6, 8 and 10 days only; and • B set: Test agent exposure for 1, 3, 6, 8 and 10 days, followed by a seven day recovery time with control medium. Both sets of plates were fixed (10% formalin in PBS) and stained (0.02% crystal violet) at the end of the timed exposures. Test concentrations for cytochalasin B were 1, 0.1 and 0.01 µg/ml, and a negative medium control was included. Fresh medium and drug were supplied 3 times per week.
In this Table, "M" indicates Migration Grade, wherein - = no migration; +1 = minimal; +2 = mild; +3 = moderate; and +4 = marked (maximum density; limit of cell contact inhibition) migration of vascular smooth muscle cells into the cleared area adjacent to the scratch. In this Table, "T" denotes a morphological Toxicity Grade, wherein - = no toxicity; +1 = minimal; +2 = mild; +3 = moderate; and +4 = marked toxicity. The migration results are expressed as "Grade in the Cleared Area of the Well / Grade in an Undisturbed Region of the Well." The toxicity values represent a grade for all cells in each well.

For series [3], the system named is Vascular smooth muscle cells. The experiment in a line: DNA synthesis by [3H]-thymidine incorporation in rat vascular smooth muscle cells. It is filed as cell-based. The conditions noted are these: between 12 and 24 hours after stimulation, control 17614 +/- 1714 cpm. As to the method:
DNA synthesis was assayed by [^3H]-thymidine incorporation as described in Grainger et al., Biochem. J., 277:145-151, 1991. Vascular smooth muscle cells were subcultured, grown in DMEM + 10% FCS for 24 hours, made quiescent in serum-free DMEM for 48 hours and restimulated with 10% FCS at "0" hours. [^3H]-thymidine (5 microcuries/ml; available from Amersham International) was added 12 hours after restimulation and the cells were harvested after 24 hours. DNA synthesis by adventitial fibroblasts was determined similarly, except that the cells were made quiescent in serum-free DMEM for 24 hours.
On the technique in general: Uptake of a labelled nucleoside into DNA is a usual measure of proliferation.

Series [4] in a line: Proliferation of enzyme-dispersed (ED) human VSMC cultures. It counts as cell-based. To be noted: human, aortic vsmc ed cultures, cell counting, read-out: concentrations that caused cell death. As to the method:
(§1) Human aortic VSMC cultures. Adult human VSMC were obtained from 6 transplant donors (either sex, age range from 3 to 54 years) using the enzyme dispersal or explant technique. In one case, the same donor (a person) was used to establish both an enzyme-dispersed (ED) and explant-derived (EX) cell culture. Prior to enzyme-dispersion or explanting treatment, human aortas were obtained within 18 h of death. The endothelium layer was removed with a scalpel blade and strips of smooth muscle cells (tunica media) were removed with forceps and chopped into small pieces (1 mm^3).
(§2) ED Cultures. The aortic pieces were washed once with serum-free Hanks Balanced Salt Solution, then enzyme-dispersed with collagenase and elastase, as described in Example 7. The cells were plated at an initial density of 1.5 x 10^5 cells/cm^2 and incubated in a humidified atmosphere at 37°C in 5% CO2 in air. The cells were subcultured every 6-7 days (at stationary phase) by releasing them with trypsin/EDTA and diluting them 1:1.5 in D-MEM + 10% FCS. Subcultured ED cells were cultured with D-MEM + 20% FCS 24 h after plating, and thereafter at 48 h intervals.
(§3) Cell counting, DNA synthesis assays and assays for total and active TGF-beta were performed as described in Example 7.

A further series has as its system human ED cultures. Described as above. The conditions noted are these: 96 h, cell counting. It is filed as cell-based. As to the method:
as §1, §2, §3

In another series the test system is TGF-beta. Description: ELISA for TGF-beta in medium conditioned on human EX cultures. It is filed as cell-based. To be noted: 5 µM. As to the method: The total latent and active TGF-beta present was determined by a sandwich ELISA. Maxisorb 96-well ELISA plates (available from Gibco) were coated with neutralizing antiserum against TGF-beta (BDA19; available from R & D Systems) at 2 micrograms/cm^2 in phosphate buffered saline (PBS) overnight at room temperature. The plates were washed between each step with tris-buffered saline containing 0.1% Triton X-100 (available from Sigma Chemical Company). The plates were incubated with samples for 2 hours, with a second antibody to TGF-beta (BDA5; available from R & D Systems) at 0.1 micrograms/ml for 2 hours, anti-rabbit IgG peroxidase conjugated to antibody (available from Sigma Chemical Co.), made up according to manufacturer's instructions, for 15 minutes. Absorbances at 492 nm were converted into quantities of TGF-beta protein using a standard curve. Both conditioned media and standards were assayed in the presence of 10% FCS in DMEM. This assay was linear for TGF-beta concentrations in the range from 0.1 ng/ml to 20 ng/ml in the presence of 10% FCS in DMEM.
as §3

Regarding cytochalasin B, in series [1], the “lumen area in the test region compared to the normal control segment of the same artery” value was “approximately two times”. For the same compound, in series [1], the “luminal area compared to arteries treated with other test agents or controls” value is reported as “larger luminal area”. Moreover, the “toxicity to the vascular smooth muscle cells” value in series [1] is “appeared to be toxic”. For the same compound, the “morphological Toxicity Grade” value is “+2” in series [2] (7-day Recovery Post Exposure, 1.0 µg/mL, Day 1); “+1” in series [2] (7-day Recovery Post Exposure, 1.0 µg/mL, Day 3); “+3” in series [2] (7-day Recovery Post Exposure, 1.0 µg/mL, Day 6); “+3” in series [2] (7-day Recovery Post Exposure, 1.0 µg/mL, Day 8); “+3” in series [2] (7-day Recovery Post Exposure, 1.0 µg/mL, Day 10); “+1” in series [2] (Continuous Exposure, 0.1 µg/mL, Day 3). Further, the “morphological Toxicity Grade” value in series [2] (Continuous Exposure, 0.1 µg/mL, Day 6) is listed as “+1”; in series [2] (Continuous Exposure, 0.1 µg/mL, Day 8), “+1”; in series [2] (Continuous Exposure, 0.1 µg/mL, Day 10), “+1”; in series [2] (Continuous Exposure, 1.0 µg/mL, Day 1), “+3”; in series [2] (Continuous Exposure, 1.0 µg/mL, Day 3), “+3”.

For the compound `CC/C(=C(\c1ccccc1)c1ccc(OCCN(C)C)cc1)c1ccccc1` [tamoxifen, trans-2-[4-(1,2-diphenyl-1-butenyl)phenoxy]-N,N-dimethylethylamine], the “DNA synthesis, [3H]-thymidine incorporation” value in series [3] (10 micromolar) was 16898 +/- 3417 cpm. In addition, the “DNA synthesis, [3H]-thymidine incorporation” value in series [3] (50 micromolar) was 18002 +/- 4167 cpm. Moreover, the MCC at 96 h in series [4] was > 33 µM. Moreover, the “concentrations that did not affect the rate of proliferation” value with human ED cultures is reported as “below 10 µM”. Besides, in the series on TGF-beta, the “proportion of total TGF-beta protein that was activated” value is on record as 55±5% and the “total TGF-beta protein in conditioned medium” value turned out to be 6.0 ± 2.0 ng/mL.
